According to paper PMC9652263 (Investigational New Drugs, 2022):
Several values for one entry are separate records, joined by “and”; a condition that tells them apart may be missing. Identical values can stand only once. Like-named read-outs stand apart in the source and are kept apart here. Values belong to the compound of their own block, whether it stands above or below them.

What was measured:
[1] = for HL, Mean: transformed into the natural logarithm
Procedure: (§1) Blood and plasma concentration–time profiles were analyzed by standard non-compartmental methods. Individual PK parameters were tabulated and summarized.
(§2) Both drugs were measured by validated liquid extraction methods followed by ultra-performance liquid chromatography tandem mass-spectrometry detection (Dynakin, Derio, Spain).

[2] = test system: patients with advanced solid tumors; details: cited from earlier work
[3] = test system: SCLC, breast, ovarian, endometrial cancer, NSCLC; details: cited from earlier work
[4] = test system: patients with advanced solid tumors; test: Dose escalation and dose-limiting toxicities (phase I, 3+3 design); details: combination q3wk; paclitaxel on D1 and D8, lurbinectedin on D1
Procedure: Furthermore, during dose escalation lurbinectedin was converted to a body surface area (BSA)-based dose.
The DL5 cohort was then expanded, converting lurbinectedin to a BSA-based dose of 2.2 mg/m^2 (calculated by dividing 4.0 mg FD by a BSA of 1.8 m^2).
Patient accrual began in Group A, with dose escalation following a standard 3+3 design. […] During dose escalation in Group A, lurbinectedin was converted to a body surface area (BSA)-based dose (calculated by dividing the allocated FD by a BSA of 1.8 m^2).

patients = details: single-agent weekly paclitaxel; cited from earlier work
clinical = details: human, in vivo
Procedure: as §1, §2

[5] = Cycle 1, DL1: paclitaxel 60 / lurbinectedin 3.0 mg FD, mean (SD)
[6] = Cycle 1, DL2: paclitaxel 60 / lurbinectedin 4.0 mg FD, mean (SD)
[7] = Cycle 1, DL3: paclitaxel 60 / lurbinectedin 5.0 mg FD, mean (SD)
[8] = Cycle 1, DL4 (MTD): paclitaxel 80 / lurbinectedin 5.0 mg FD, mean (SD)
[9] = Cycle 1, DL5 (RD): paclitaxel 80 / lurbinectedin 2.2 mg/m^2, mean (SD)
[10] = Cycle 1, DL5 (RD): paclitaxel 80 / lurbinectedin 4.0 mg FD, mean (SD)
[11] = Cycle 1, RD + BEV 80 / 2.2 / 15, mean (SD)
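Wherever AUC is given: blood and plasma drug levels in patients quantified by UPLC tandem mass spectrometry, with PK parameters derived by non-compartmental analysis of concentration–time profiles.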
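Wherever CL is given: blood and plasma drug levels in patients quantified by UPLC tandem mass spectrometry, with PK parameters derived by non-compartmental analysis of concentration–time profiles.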
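Wherever Cmax is given: blood and plasma drug levels in patients quantified by UPLC tandem mass spectrometry, with PK parameters derived by non-compartmental analysis of concentration–time profiles.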
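Wherever HL (terminal half-life) is given: blood and plasma drug levels in patients quantified by UPLC tandem mass spectrometry, with PK parameters derived by non-compartmental analysis of concentration–time profiles.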

Compound: COc1ccc2[nH]c3c(c2c1)CCN[C@]31CS[C@@H]2c3c(OC(C)=O)c(C)c4c(c3[C@H](COC1=O)N1[C@@H]2[C@H]2c3c(cc(C)c(OC)c3O)C[C@@H]([C@@H]1O)N2C)OCO4 [Lurbinectedin]
AUC ([1]; Cycle 1, DL1: paclitaxel 60 mg/m^2 D1,D8,D15 / lurbinectedin 3.0 mg FD, mean (SD)): 405.9 (129.6) h* μg/L | CL [1, 5]: 7.8 (2.2) L/h | Cmax [1, 5]: 97.7 (45.5) μg/L | HL (terminal half-life) [1, 5]: 52.8 (3.7) h | Vss [1, 5]: 299.4 (84.4) L | Vz [1, 5]: 602.1 (193.0) L | AUC ([1]; Cycle 1, DL2: paclitaxel 60 mg/m^2 D1,D8,D15 / lurbinectedin 4.0 mg FD, mean (SD)): 357.9 (174.2) h* μg/L | CL [1, 6]: 14.2 (9.4) L/h | Cmax [1, 6]: 74.0 (18.9) μg/L | HL (terminal half-life) [1, 6]: 82.1 (65.7) h | Vss [1, 6]: 733.7 (415.1) L | Vz [1, 6]: 1161 (563.2) L | AUC ([1]; Cycle 1, DL3: paclitaxel 60 mg/m^2 D1,D8,D15 / lurbinectedin 5.0 mg FD, mean (SD)): 714.0 (416.3) h* μg/L | CL [1, 7]: 8.8 (4.0) L/h | Cmax [1, 7]: 127.0 (74.0) μg/L | HL (terminal half-life) [1, 7]: 46.6 (15.5) h | Vss [1, 7]: 343.2 (150.1) L | Vz [1, 7]: 530.8 (164.6) L | AUC ([1]; Cycle 1, DL4 (MTD): paclitaxel 80 mg/m^2 D1,D8 / lurbinectedin 5.0 mg FD, mean (SD)): 376.2 (151.4) h* μg/L | CL [1, 8]: 15.2 (6.0) L/h | Cmax [1, 8]: 109.5 (28.4) μg/L | HL (terminal half-life) [1, 8]: 38.6 (8.3) h | Vss [1, 8]: 401.8 (99.1) L | Vz [1, 8]: 806.0 (243.4) L | AUC ([1]; Cycle 1, DL5 (RD): paclitaxel 80 mg/m^2 D1,D8 / lurbinectedin 2.2 mg/m^2, mean (SD)): 440.5 (224.4) h* μg/L | AUC ([1]; Cycle 1, DL5 (RD): paclitaxel 80 mg/m^2 D1,D8 / lurbinectedin 4.0 mg FD, mean (SD)): 436.2 (238.3) h* μg/L | CL [1, 9]: 11.1 (5.3) L/h | Cmax [1, 9]: 96.3 (34.7) μg/L | HL (terminal half-life) [1, 9]: 49.3 (22.5) h | Vss [1, 9]: 454.9 (222.6) L | Vz [1, 9]: 727.6 (346.9) L | CL [1, 10]: 12.0 (7.0) L/h | Cmax [1, 10]: 83.9 (42.5) μg/L | HL (terminal half-life) [1, 10]: 47.1 (23.0) h | Vss [1, 10]: 420.9 (182.7) L | Vz [1, 10]: 701.8 (268.9) L | CL [1, 11]: 13.8 (6.5) L/h | Cmax [1, 11]: 88.7 (28.9) μg/L | HL (terminal half-life) [1, 11]: 40.0 (15.7) h | Vss [1, 11]: 408.5 (161.7) L | Vz [1, 11]: 724.9 (340.5) L | AUC ([1]; Cycle 1, RD + BEV: paclitaxel 80 mg/m^2 / lurbinectedin 2.2 mg/m^2 / BEV 15 mg/kg, mean (SD)): 351.2 (175.9) h* μg/L | differences in PK parameters in the presence or absence of BEV ([1]; RD in Group A vs Group B, Cycle 1): No statistically significant differences | variability of total clearance (CL) ([1]; all dose levels): Wide variability | dose linearity of maximum concentration (Cmax) and AUC ([1]; dose levels 3.0–5.0 mg FD in combination with paclitaxel): No dose linearity could be established | potential drug-drug interaction: CL of each drug at the high AUC of the other drug ([1]; paclitaxel with lurbinectedin): slight decrease | HL, Mean ([1]; Cycle 1, Group A at the RD (31 patients)): 3.802 | HL, Mean ([1]; Cycle 1, Group B with BEV (12 patients)): 3.603 | recommended dose (RD), single-agent ([2]; 1-h i.v. infusion q3wk): 7.0 mg flat dose (FD) and 7 mg flat dose (FD) | median half-life ([2]; single agent at the RD (7 mg FD)): 70.6 h | response rate ([3]; monotherapy, BRCA-unselected breast cancer): 9% | response rate ([3]; monotherapy, ovarian cancer): 14–23% | response rate ([3]; monotherapy, second-line treatment of patients with SCLC): 35% | recommended dose (RD) [4]: 2.2 mg/m^2

potential drug-drug interaction: CL of each drug at the high AUC of the other drug ([1]; human, in vivo): slight decrease | variability of total clearance (CL) ([1]; human, in vivo): Wide variability | Cmax ([1]; human, in vivo, 2.2 mg/m2): 3004 (971.4) μg/L | CL ([1]; human, in vivo, 4 mg): 31.1 (6.2) L/h | Cmax ([1]; human, in vivo, 4 mg): 2908 (482.2) μg/L | Vss ([1]; human, in vivo, 4 mg): 315.3 (89.7) L | Vz ([1]; human, in vivo, 4 mg): 639.9 (128.6) L | CL ([1]; human, in vivo, 5 mg): 30.2 (8.6) L/h | Cmax ([1]; human, in vivo, 5 mg): 3122 (1420) μg/L | Vss ([1]; human, in vivo, 5 mg): 323.2 (266.8) L | Vz ([1]; human, in vivo, 5 mg): 627.5 (185.2) L | clearance (clinical; 2.2 mg/m2, CL): 525 mL/min | Vd (clinical; 2.2 mg/m2, Vss): 324 L | Vd (clinical; 2.2 mg/m2, Vz): 662 L | clearance (clinical; 3 mg, CL): 437 mL/min | Cmax (clinical; 3 mg): 2370 ng/mL | Vd (clinical; 3 mg, Vss): 315 L | Vd (clinical; 3 mg, Vz): 689 L | half-life (clinical; 4 mg): 29.2 h | clearance (clinical; 4 mg, CL): 487 mL/min | Cmax (clinical; 4 mg): 1500 ng/mL | Vd (clinical; 4 mg, Vss): 577 L | Vd (clinical; 4 mg, Vz): 934 L | clearance (clinical; 5 mg, CL): 575 mL/min | Cmax (clinical; 5 mg): 1980 ng/mL | Vd (clinical; 5 mg, Vss): 430 L | Vd (clinical; 5 mg, Vz): 858 L
Compound: CC(=O)O[C@H]1C(=O)[C@@]2(C)[C@H]([C@H](OC(=O)c3ccccc3)[C@]3(O)C[C@H](OC(=O)[C@H](O)[C@@H](NC(=O)c4ccccc4)c4ccccc4)C(C)=C1C3(C)C)[C@]1(OC(C)=O)CO[C@@H]1C[C@@H]2O [Paclitaxel]
response rate ([3]; single-agent weekly 80 mg/m^2/week, metastatic breast cancer): 22–42% | response rate ([3]; single-agent weekly 80 mg/m^2/week, relapsed ovarian cancer): 21–60% | response rate ([3]; single-agent weekly 80 mg/m^2/week, relapsed/refractory SCLC): 20–27% | incidence of peripheral neuropathy, grade 3/4 (patients): 3–21%

Compound: Bevacizumab
improvement in ORR with the addition of BEV to chemotherapy vs. chemotherapy alone ([3]; recurrent ovarian cancer and previously untreated NSCLC): 15–20%
